We go through 29 compounds from patent publication US11535630B2, “Apelin receptor (APJ) agonists and uses thereof” (Research Triangle Institute, priority 2015, dated 2022).

In the assay the target is T1, apelin receptor (APJ) (Homo sapiens, UniProt P35414).
T1 sequence (P35414 1-380): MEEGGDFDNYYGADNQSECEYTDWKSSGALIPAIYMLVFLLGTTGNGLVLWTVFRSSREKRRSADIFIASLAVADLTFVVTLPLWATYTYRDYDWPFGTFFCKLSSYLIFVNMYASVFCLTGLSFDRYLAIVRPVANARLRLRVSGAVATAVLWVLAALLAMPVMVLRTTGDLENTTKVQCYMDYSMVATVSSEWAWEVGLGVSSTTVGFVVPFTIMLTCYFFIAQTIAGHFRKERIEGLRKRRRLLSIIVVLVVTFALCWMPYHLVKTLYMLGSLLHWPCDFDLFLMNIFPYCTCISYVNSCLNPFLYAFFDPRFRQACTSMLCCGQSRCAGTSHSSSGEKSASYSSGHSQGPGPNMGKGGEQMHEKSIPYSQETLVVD
As to the kind of experiment: In vitro apelin agonist activity (methods of Giddings et al., Apelin-13 as positive control). It counts as cell-based. The following applies: in vitro apelin agonist activity, methods of Giddings et al., Apelin-13 as positive control; read-out: EC50 (nM) Ave. The text has this: Characterization of the Apelin Agonist Activity of the Compounds
1:39-47, the contents of which are hereby incorporated by reference in its entirety. Using the methods described in Giddings et al. and Apelin-13 as a positive control.
Broadly, the EC50 is the concentration at which the effect is half-maximal. Regarding `COc1cccc(OC)c1-c1cc(C(=O)N[C@@H](CCN2CCCCC2)CC(=O)Nc2nccs2)nn1C1CCCC1` [compound 338, (3S)-3-{[1-cyclopentyl-5-(2,6-dimethoxyphenyl)-1H-pyrazol-3-yl]formamido}-5-(piperidin-1-yl)-N-(1,3-thiazol-2-yl)pentanamide], the EC50 came out at 12 nM.

Take `COc1cccc(OC)c1-c1cc(C(=O)N[C@@H](CCN2CCCCC2)CC(=O)Nc2ncco2)nn1C1CCCC1` [compound 339, (3S)-3-{[1-cyclopentyl-5-(2,6-dimethoxyphenyl)-1H-pyrazol-3-yl]formamido}-N-(1,3-oxazol-2-yl)-5-(piperidin-1-yl)pentanamide]: the EC50 was 31 nM.

With `CCN(C(=O)c1cc(-c2c(OCC(F)(F)F)cccc2OCC(F)(F)F)n(C2CCCC2)n1)[C@@H](CCN1CCCCC1)CC(=O)NC1CCC1` [compound 342, (3S)-3-(1-{5-[2,6-bis(2,2,2-trifluoroethoxy)phenyl]-1-cyclopentyl-1H-pyrazol-3-yl}-N-ethylformamido)-N-cyclobutyl-5-(piperidin-1-yl)pentanamide], the EC50 was more than 10000 nM.

As for `COc1cccc(OC)c1-c1cc(C(=O)N[C@@H](CCN2CCCCC2)Cc2nnc(C)o2)nn1C1CCCC1` [compound 343, 1-cyclopentyl-5-(2,6-dimethoxyphenyl)-N-[(2S)-1-(5-methyl-1,3,4-oxadiazol-2-yl)-4-(piperidin-1-yl)butan-2-yl]-1H-pyrazole-3-carboxamide], the EC50 worked out at 1530 nM.

Regarding `CCN(C(=O)c1cc(-c2ccccc2OC(F)(F)F)n(C2CCCC2)n1)[C@@H](CCN1CCCCC1)CC(=O)NC1CCC1` [compound 344, (3S)-N-cyclobutyl-3-(1-{1-cyclopentyl-5-[2-(trifluoromethoxy)phenyl]-1H-pyrazol-3-yl}-N-ethylformamido)-5-(piperidin-1-yl)pentanamide], the EC50 turned out to be 2370 nM.

`CCN(C(=O)c1cc(-c2c(F)cccc2OC)n(C2CCCC2)n1)[C@@H](CCN1CCCCC1)CC(=O)NC1CCC1` [compound 345, (3S)-N-cyclobutyl-3-{1-[1-cyclopentyl-5-(2-fluoro-6-methoxyphenyl)-1H-pyrazol-3-yl]-N-ethylformamido}-5-(piperidin-1-yl)pentanamide]: the EC50 was more than 10000 nM.

Consider `CCC(CC)n1nc(C(=O)N(CC)[C@@H](CCN2CCCCC2)CC(=O)NC2CCC2)cc1-c1c(OC)cccc1OC` [compound 346, (3S)-N-cyclobutyl-3-{1-[5-(2,6-dimethoxyphenyl)-1-(pentan-3-yl)-1H-pyrazol-3-yl]-N-ethylformamido}-5-(piperidin-1-yl)pentanamide], for which the EC50 is more than 10000 nM.

As to `CCN(C(=O)c1cc(-c2cccs2)n(C2CCCC2)n1)[C@@H](CCN1CCCCC1)CC(=O)NC1CCC1` [compound 347], the EC50 is more than 10000 nM.

With `COc1cccc(OC)c1-c1cc(C(=O)N[C@@H](CCN2CC3(CCC3)C2)CC(=O)NC2CCC2)nn1C1CCCC1` [compound 349], the EC50 came to 197 nM.

As to `COc1cccc(OC)c1-c1cc(C(=O)N[C@@H](CCN2CCCCC2)CC(=O)N(C)c2nccs2)nn1C1CCCC1` [compound 351, (3S)-3-{[1-cyclopentyl-5-(2,6-dimethoxyphenyl)-1H-pyrazol-3-yl]formamido}-N-methyl-5-(piperidin-1-yl)-N-(1,3-thiazol-2-yl)pentanamide], the EC50 worked out at 73 nM.

`COc1cccc(OC)c1-c1cc(C(=O)N[C@@H](CCN2CCCCC2)CC(N)=O)nn1C1CCCC1` [compound 352, (3S)-3-{[1-cyclopentyl-5-(2,6-dimethoxyphenyl)-1H-pyrazol-3-yl]formamido}-5-(piperidin-1-yl)pentanamide]: the EC50 is more than 10000 nM.

As to `O=C(C[C@H](CCN1CCCCC1)NC(=O)c1cc(-c2c(OCC(F)(F)F)cccc2OCC(F)(F)F)n(C2CCCC2)n1)NC1CCC1` [compound 353], the EC50 is more than 10000 nM.

For the compound `O=C(C[C@H](CCN1CCCCC1)NC(=O)c1cc(-c2c(F)cc(F)cc2F)n(C2CCCC2)n1)NC1CCC1` [compound 354, (3S)-N-cyclobutyl-3-{[1-cyclopentyl-5-(2,4,6-trifluorophenyl)-1H-pyrazol-3-yl]formamido}-5-(piperidin-1-yl)pentanamide], the EC50 was more than 10000 nM.

Take `CCOc1cc(F)c(-c2cc(C(=O)N[C@@H](CCN3CCCCC3)CC(=O)NC3CCC3)nn2C2CCCC2)c(F)c1` [compound 355, (3S)-N-cyclobutyl-3-{[1-cyclopentyl-5-(4-ethoxy-2,6-difluorophenyl)-1H-pyrazol-3-yl]formamido}-5-(piperidin-1-yl)pentanamide]: the EC50 stood at 5080 nM.

As to `COc1cccc(OC)c1-c1cc(C(=O)N[C@@H](CCN2CCCCC2)CC(=O)NC2CCC2)nn1C1CCCCC1C` (stereo partly drawn) [compound 356, (3S)-N-cyclobutyl-3-{[5-(2,6-dimethoxyphenyl)-1-(2-methylcyclohexyl)-1H-pyrazol-3-yl]formamido}-5-(piperidin-1-yl)pentanamide], the EC50 is more than 10000 nM.

As for `CCC(CC)n1nc(C(=O)N[C@@H](CCN2CCCCC2)CC(=O)NC2CCC2)cc1-c1c(OC)cccc1OC` [compound 357, (3S)-N-cyclobutyl-3-{[5-(2,6-dimethoxyphenyl)-1-(pentan-3-yl)-1H-pyrazol-3-yl]formamido}-5-(piperidin-1-yl)pentanamide], the EC50 is more than 10000 nM.

`COc1cccc(OC)c1-c1cc(C(=O)N[C@H](CCO)CCN2CCCCC2)nn1C1CCCC1` [compound 358]: the EC50 is more than 10000 nM.

Consider `O=C(C[C@H](CCN1CCCCC1)NC(=O)c1cc(-c2ccccc2OC(F)(F)F)n(C2CCCC2)n1)NC1CCC1` [compound 359, (3S)-N-cyclobutyl-3-({1-cyclopentyl-5-[2-(trifluoromethoxy)phenyl]-1H-pyrazol-3-yl]formamido)-5-(piperidin-1-yl)pentanamide], for which the EC50 is 271 nM.

Turning to `CSc1ccccc1-c1cc(C(=O)N[C@@H](CCN2CCCCC2)CC(=O)NC2CCC2)nn1C1CCCC1` [compound 360, (3S)-N-cyclobutyl-3-({1-cyclopentyl-5-[2-(methylsulfanyl)phenyl]-1H-pyrazol-3-yl]formamido)-5-(piperidin-1-yl)pentanamide], the EC50 worked out at 376 nM.

For the compound `COc1ccccc1-c1cc(C(=O)N[C@@H](CCN2CCCCC2)CC(=O)NC2CCC2)nn1C1CCCC1` [compound 361, (3S)-N-cyclobutyl-3-{[1-cyclopentyl-5-(2-methoxyphenyl)-1H-pyrazol-3-yl]formamido}-5-(piperidin-1-yl)pentanamide], the EC50 was 234 nM.

For the compound `O=C(C[C@H](CCN1CCCCC1)NC(=O)c1cc(-c2cccs2)n(C2CCCC2)n1)NC1CCC1` [compound 362, (3S)-N-cyclobutyl-3-{[1-cyclopentyl-5-(thiophen-2-yl)-1H-pyrazol-3-yl]formamido}-5-(piperidin-1-yl)pentanamide], the EC50 came to 5860 nM.

`COc1cccc(OC)c1-c1cc(C(=O)N[C@@H](CCN2CCCCC2)Cc2nnn[nH]2)nn1C1CCCC1` [compound 364, 1-cyclopentyl-5-(2,6-dimethoxyphenyl)-N-[(2S)-4-(piperidin-1-yl)-1-(1H-1,2,3,4-tetrazol-5-yl)butan-2-yl]-1H-pyrazole-3-carboxamide]: the EC50 worked out at 235 nM.

`O=C(C[C@H](CCN1CCCCC1)NC(=O)c1cc(-c2ccccc2)n(C2CCCC2)n1)NC1CCC1` [compound 365, (3S)-N-cyclobutyl-3-[(1-cyclopentyl-5-phenyl-1H-pyrazol-3-yl)formamido]-5-(piperidin-1-yl)pentanamide]: the EC50 was more than 10000 nM.

With `O=C(C[C@H](CCN1CCCCC1)NC(=O)c1cc(-c2ccc(F)cc2OCC(F)(F)F)n(C2CCCC2)n1)NC1CCC1` [compound 366, (3S)-N-cyclobutyl-3-({1-cyclopentyl-5[4-fluoro-2-(2,2,2-trifluoroethoxy)phenyl]-1H-pyrazol-3-yl]formamido)-5-(piperidin-1-yl)pentanamide], the EC50 was more than 10000 nM.

With `CS(=O)(=O)c1ccccc1-c1cc(C(=O)N[C@@H](CCN2CCCCC2)CC(=O)NC2CCC2)nn1C1CCCC1` [compound 367, (3S)-N-cyclobutyl-3-{[1-cyclopentyl-5-(2-methanesulfonylphenyl)-1H-pyrazol-3-yl]formamido}-5-(piperidin-1-yl)pentanamide], the EC50 amounted to 2970 nM.

For `O=C(C[C@H](CCN1CCCCC1)NC(=O)c1cc(-c2cncnc2)n(C2CCCC2)n1)NC1CCC1` [compound 368, (3S)-N-cyclobutyl-3-{[1-cyclopentyl-5-(pyrimidin-5-yl)-1H-pyrazol-3-yl]formamido}-5-(piperidin-1-yl)pentanamide], the EC50 is more than 10000 nM.

Turning to `Cc1noc(C)c1-c1cc(C(=O)N[C@@H](CCN2CCCCC2)CC(=O)NC2CCC2)nn1C1CCCC1` [compound 369, (3S)-N-cyclobu tyl-3-{[1-cyclopentyl-5-(dimethyl-1,2-oxazol-4-yl)-1H-pyrazol-3-yl]formamido}-5-(piperidin-1-yl)pentanamide], the EC50 was more than 10000 nM.

As to `COc1cccc(Cl)c1-c1cc(C(=O)N[C@@H](CCN2CCCCC2)CC(=O)NC2CCC2)nn1C1CCCC1` [compound 370, (3S)-3-{[5-(2-chloro-6-methoxyphenyl)-1-cyclopentyl-1H-pyrazol-3-yl]formamido}-N-cyclobutyl-5-(piperidin-1-yl)pentanamide], the EC50 was 1030 nM.

Take `Cc1cccc(C)c1-c1cc(C(=O)N[C@@H](CCN2CCCCC2)CC(=O)NC2CCC2)nn1C1CCCC1` [compound 371, (3S)-N-cyclobutyl-3-{[1-cyclopentyl-5-(2,6-dimethylphenyl)-1H-pyrazol-3-yl]formamido}-5-(piperidin-1-yl)pentanamide]: the EC50 was 3840 nM.
